# Source: ChEMBL document CHEMBL1255537, “Design, synthesis and docking studies on phenoxy-3-piperazin-1-yl-propan-2-ol derivatives as protein tyrosine phosphatase 1B inhibitors” (2010)
# Assays:
# Rattus norvegicus [1] = test: Antihyperglycemic activity in rat sucrose loaded model assessed as reduction of blood glucose level at 100 mg/kg, po; assay type: functional
# [2] = target: T1, Tyrosine-protein phosphatase non-receptor type 1 (Homo sapiens) (UniProt P18031); test: Inhibition of PTP1B assessed as p-nitrophenolate ions release at 100 uM
# T1 sequence (whole entry): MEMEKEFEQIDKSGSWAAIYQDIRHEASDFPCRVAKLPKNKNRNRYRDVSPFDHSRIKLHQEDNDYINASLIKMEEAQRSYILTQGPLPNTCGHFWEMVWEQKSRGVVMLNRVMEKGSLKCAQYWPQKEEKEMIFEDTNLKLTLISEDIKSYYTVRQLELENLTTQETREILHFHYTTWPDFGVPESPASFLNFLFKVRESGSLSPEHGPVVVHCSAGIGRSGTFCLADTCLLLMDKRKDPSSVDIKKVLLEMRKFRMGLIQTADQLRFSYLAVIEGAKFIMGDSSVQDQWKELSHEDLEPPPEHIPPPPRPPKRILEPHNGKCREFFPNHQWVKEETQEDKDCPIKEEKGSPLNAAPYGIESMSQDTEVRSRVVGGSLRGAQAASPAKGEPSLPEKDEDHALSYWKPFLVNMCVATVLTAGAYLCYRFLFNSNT
# Rattus norvegicus [3] = test: Antihyperglycemic activity in rat streptozotocin-induced diabetic model assessed as reduction of blood glucose level at 100 mg/kg, po after 24 hrs; assay type: functional
# Rattus norvegicus [4] = test: Antihyperglycemic activity in rat streptozotocin-induced diabetic model assessed as reduction of blood glucose level at 100 mg/kg, po after 5 hrs; assay type: functional
SMILES,inhibition in vivo at 100 mg/kg (Rattus norvegicus [1]) [%],inhibition [2] [%],inhibition in vivo at 100 mg/kg (Rattus norvegicus [3]) [%],inhibition in vivo at 100 mg/kg (Rattus norvegicus [4]) [%]
COc1ccc(N2CCN(CC(O)COc3ccc(Cl)cc3)CC2)cc1 (stereo unspecified),4.6,9.21,–,–
COc1ccccc1N1CCN(CC(O)COc2ccc(C#N)cc2)CC1 (stereo unspecified),33.5,2.6,–,–
Cc1ccc(N2CCN(CC(O)COc3ccc(C#N)cc3)CC2C)cc1 (stereo unspecified),40.3,31.6,32,26.8
N#Cc1ccc(OCC(O)CN2CCN(Cc3ccc4c(c3)OCO4)CC2)cc1 (stereo unspecified),14,0.5,–,–
CN(C)C(=N)NC(=N)N [METFORMIN],42,–,29.8,28
N#Cc1ccc(OCC(O)CN2CCN(c3cccc(Cl)c3)CC2)cc1 (stereo unspecified),16.5,1.5,–,–
OC(COc1ccc(Cl)cc1)CN1CCN(C/C=C/c2ccccc2)CC1 (stereo unspecified),14.6,7.63,–,–
N#Cc1ccc(OCC(O)CN2CCN(c3ccccc3)CC2)cc1 (stereo unspecified),56.7,4.6,–,–
N#Cc1ccc(OCC(O)CN2CCN(c3cccc(C(F)(F)F)c3)CC2)cc1 (stereo unspecified),49.7,18.8,–,–
CN1CCN(CC(O)COc2ccc(Cl)cc2)CC1 (stereo unspecified),2.61,2.4,–,–
N#Cc1ccc(OCC(O)CN2CCN(Cc3ccccc3)CC2)cc1 (stereo unspecified),39.6,5.1,14.7,25.3
OC(COc1ccc(Cl)cc1)CN1CCN(c2ccc(Cl)c(Cl)c2)CC1 (stereo unspecified),3.52,24.6,–,–
N#Cc1ccc(OCC(O)CN2CCN(c3ccccn3)CC2)cc1 (stereo unspecified),39.6,1.8,–,–
O=[N+]([O-])c1ccc(N2CCN(CC(O)COc3ccc(Cl)cc3)CC2)cc1 (stereo unspecified),24.8,35.9,13.6,18.9
N#Cc1ccc(OCC(O)CN2CCN(c3ccc(F)cc3)CC2)cc1 (stereo unspecified),38.6,3.6,–,–
O=[N+]([O-])c1ccc(N2CCN(CC(O)COc3ccc(F)cc3)CC2)cc1 (stereo unspecified),40.2,24,10.8,14.4
